This passage reports EC50 results from patent US20250230172A1 (Vanqua Bio, Inc., priority 2021, published 2025).

Some results are limits rather than exact numbers.

The target of this assay is T1, GCase (Homo sapiens, UniProt P04062).
T1 construct: endogenous in cells; host or cells: HeLa cells
T1 sequence (P04062 40-536): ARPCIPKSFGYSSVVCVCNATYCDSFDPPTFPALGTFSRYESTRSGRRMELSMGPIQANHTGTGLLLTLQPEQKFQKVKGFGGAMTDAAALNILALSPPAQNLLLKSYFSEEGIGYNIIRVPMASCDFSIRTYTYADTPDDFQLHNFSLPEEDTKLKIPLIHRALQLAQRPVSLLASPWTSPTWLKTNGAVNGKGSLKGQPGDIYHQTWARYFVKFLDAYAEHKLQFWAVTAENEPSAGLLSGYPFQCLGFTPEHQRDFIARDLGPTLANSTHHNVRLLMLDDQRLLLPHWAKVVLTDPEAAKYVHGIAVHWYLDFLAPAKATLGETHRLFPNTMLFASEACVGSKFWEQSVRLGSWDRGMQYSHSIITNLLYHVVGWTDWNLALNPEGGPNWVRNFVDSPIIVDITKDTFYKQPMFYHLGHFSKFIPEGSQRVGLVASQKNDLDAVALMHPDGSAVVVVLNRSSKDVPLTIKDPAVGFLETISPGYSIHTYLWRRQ
The assay can be described thus: live cell PFB assay in HELA cells for activation of GCase. It is filed as cell-based. As for the experimental part:
Exemplary compounds were evaluated for activation of GCase in a live cell PFB assay in HELA cells (essentially as described in Ysselstein et al., “LRRK2 kinase activity regulates lysosomal glucocerebrosidase in neurons derived from Parkinson's disease patients” Nature Communications (2019) 10:5570). […] EC50 ranges: A: <10 μM; B: >10-50 μM; C: >50-100 μM; D: >100 μM.
Consider `FC(F)Cn1ncc2ncc(N3CC[C@@H]4CN(c5ccnc(C(F)(F)F)c5)C[C@@H]4C3)nc21` (racemic) [Compound 21, rac-4-[(3aR,7aS)-5-[1-(2,2-difluoroethyl)-1H-pyrazolo[3,4-b]pyrazin-6-yl]-octahydro-1H-pyrrolo[3,4-c]pyridin-2-yl]-2-(trifluoromethyl)pyridine], for which the EC50 was less than 10 µM.
In turn, `FC(F)Cn1ncc2ncc(N[C@H]3C[C@@H]4CN(c5cnc(C(F)(F)F)nc5)C[C@@H]4C3)nc21` [Compound 88, 1-(2,2-difluoroethyl)-N-((3aR,5s,6aS)-2-(2-(trifluoromethyl)pyrimidin-5-yl)octahydrocyclopenta[c]pyrrol-5-yl)-1H-pyrazolo[3,4-b]pyrazin-6-amine] registered an EC50 of less than 10 µM.
With `FC(F)Cn1ncc2ncc(N3C[C@H]4CCN(c5ccc(C(F)(F)F)cn5)C[C@H]4C3)nc21` (racemic) [Compound 18], the EC50 fell in the range of 10 to 50 µM.
In the case of `FC(F)Cn1ncc2ncc(N[C@H]3C[C@@H]4CN(c5nccc(C(F)(F)F)n5)C[C@@H]4C3)nc21` [Compound 85, 1-(2,2-difluoroethyl)-N-((3aR,5s,6aS)-2-(4-(trifluoromethyl)pyrimidin-2-yl)octahydrocyclopenta[c]pyrrol-5-yl)-1H-pyrazolo[3,4-b]pyrazin-6-amine] it was less than 10 µM.
In the case of `FC(F)Cn1ncc2ncc(N[C@@H]3C[C@@H]4CN(c5cccc(C(F)(F)F)n5)C[C@@H]4C3)nc21` [Compound 32, (3aR,5S,6aS)—N-[1-(2,2-difluoroethyl)-1H-pyrazolo[3,4-b]pyrazin-6-yl]-2-[6-(trifluoromethyl)pyridin-2-yl]-octahydrocyclopenta[c]pyrrol-5-amine] it was less than 10 µM; in that of `FC(F)Cn1ncc2ncc(N3CC[C@@H]4CN(c5cncc(C(F)(F)F)c5)C[C@@H]4C3)nc21` (racemic) [Compound 10, rac-3-[(3aR,7aS)-5-[1-(2,2-difluoroethyl)-1H-pyrazolo[3,4-b]pyrazin-6-yl]-octahydro-1H-pyrrolo[3,4-c]pyridin-2-yl]-5-(trifluoromethyl)pyridine], 10 to 50 µM.
In the case of `O=C1CC2CN(c3cccc(C(F)(F)F)n3)CC2CN1c1cnc2cnn(CC(F)F)c2n1` (centres unmarked) [Compound 66, 5-(1-(2,2-difluoroethyl)-1H-pyrazolo[3,4-b]pyrazin-6-yl)-2-(6-(trifluoromethyl)pyridin-2-yl)octahydro-6H-pyrrolo[3,4-c]pyridin-6-one] it was 10 to 50 µM; in that of `FC(F)Cn1ncc2ncc(N[C@@H]3CC[C@@H]4CN(c5cc(C(F)(F)F)ccn5)C[C@@H]4C3)nc21` (single isomer, unassigned) [Compound 73], 10 to 50 µM.
The compound `FC(F)Cn1ncc2ncc(N3C[C@@H]4CN(c5ccc(C(F)(F)F)nc5)C[C@H]4C3)nc21` (racemic) [Compound 48, rac-5-[(3aR,6aR)-5-[1-(2,2-difluoroethyl)-1H-pyrazolo[3,4-b]pyrazin-6-yl]-octahydropyrrolo[3,4-c]pyrrol-2-yl]-2-(trifluoromethyl)pyridine] returned a 50% effective concentration (EC50) of 10 to 50 µM.
With `FC(F)Cn1ncc2ncc(N3C[C@H]4CCN(c5cccnc5C(F)(F)F)C[C@H]4C3)nc21` (racemic) [Compound 4, rac-3-[(3aR,7aR)-2-[1-(2,2-difluoroethyl)-1H-pyrazolo[3,4-b]pyrazin-6-yl]-octahydro-1H-pyrrolo[3,4-c]pyridin-5-yl]-2-(trifluoromethyl)pyridine], the EC50 is less than 10 µM.
The result for `FC(F)Cn1ncc2ncc(N[C@H]3C[C@@H]4CN(c5cncc(C(F)(F)F)n5)C[C@@H]4C3)nc21` [Compound 78, 1-(2,2-difluoroethyl)-N-((3aR,5s,6aS)-2-(6-(trifluoromethyl)pyrazin-2-yl)octahydrocyclopenta[c]pyrrol-5-yl)-1H-pyrazolo[3,4-b]pyrazin-6-amine] reads less than 10 µM; that for `FC(F)Cn1ncc2ncc(N3CCN4C[C@H](Oc5cccnc5C(F)(F)F)C[C@H]4C3)nc21` [Compound 26, 3-{[(7R,8aS)-2-[1-(2,2-difluoroethyl)-1H-pyrazolo[3,4-b]pyrazin-6-yl]-octahydropyrrolo[1,2-a]pyrazin-7-yl]oxy}-2-(trifluoromethyl)pyridine], 50 to 100 µM; that for `CN(c1cnc2cnn(CC(F)F)c2n1)[C@H]1C[C@@H]2CN(c3cncc(C(F)(F)F)c3)C[C@@H]2C1` [Compound 54, (3aR,5S,6aS)—N-[1-(2,2-difluoroethyl)-1H-pyrazolo[3,4-b]pyrazin-6-yl]-N-methyl-2-[5-(trifluoromethyl)pyridin-3-yl]-octahydrocyclopenta[c]pyrrol-5-amine], 10 to 50 µM.
In the case of `FC(F)Cn1ncc2ncc(N3C[C@H]4CCN(c5cc(C(F)(F)F)ccn5)C[C@H]4C3)nc21` (racemic) [Compound 11] it was 10 to 50 µM.
